Source: patent US9783513B2, “STAT3 inhibitors and their anticancer use” (Ohio State Innovation Foundation, priority 2012, dated 2017)
Entries after “also recorded” stand apart in the source; their conditions may differ.

What was measured:
cleaved caspase-3 = assay: Western blot, cleaved caspase-3 (apoptosis); format: cell-based, human
[1] = test system: IGF2, IGF-1 or LIF induced STAT3 phosphorylation; assay: Western blot, IGF and LIF induced STAT3 phosphorylation; format: cell-based, human
[2] = test system: VEGF induced vessels in Matrigel plugs; assay: Vascularization of […] plugs in vivo; set-up: species or system mouse
Procedure: To further characterize anti-angiogenetic properties of LY5 in vivo, we performed murine […]™ plug experiments. PBS was used as a negative control, and VEGF (100 ng/mL) as a positive control. […]™ was injected subcutaneously into CB17SC scid−/− female mice, forming semi-solid plugs. Animals received treatment of LY5 (5 mg/kg) I.P. intraperitoneal (i.p.) injection immediately after the […]™ injection and daily for 7 days. On day 7, plugs were excised under anesthesia, fixed in PBS-buffered 10% formalin containing 0.25% glutaraldehyde, and were processed for H&E and Masson's Trichrome staining. Vascular identity of the infiltrating cells was established with CD34 immunostaining. The regions containing the most intense area of neovascularization (“hotspots”) were chosen for analysis. Eight hotspots were identified for each Matrigel […]™ or tumor section. The ImagePro Plus analysis system (Media Cybernetics Inc, Bethesda, Md.) was used to quantify the percentage of area occupied by the vessel-like structures in each field. The mean±SE from each group were compared. The negative control was obtained by tissue staining with secondary antibody only.

HUVEC = HUVEC migration assays (wound-healing, Boyden chamber); format: cell-based, human; conditions: 300 nM, VEGF 10 ng/ml
Procedure: Endothelial cell (HUVEC) migration was monitored using the wound-healing assay described by Thaloor et al. (Cell Growth Differ. (1998) 9(4):305-12). Briefly, 3×10^4 cells/well were seeded in 24-well plates using M200 medium with LSGS. After cells had attached and formed a monolayer on plate completely, we scraped the cells with same width using yellow tip. After scraped, the cells were washed with PBS and incubated with the medium containing VEGF (10 ng/ml)) with or without LY5 (300 nM). Width was photographed at different time intervals (0 and 24 hours) with a magnification of 40× with a microscopic camera system (Leitz Diavert microscope, Leica, Bensheim; AxioCam, Carl Zeiss, Gottingen, Germany).
HUVECs were grown in M200 containing LSGS until 40-50% confluent. Cells were washed with PBS, trypsinized for 5-10 min, collected with 0.2% FBS and centrifuged at 300 g for 5 min. Cells were then resuspended with 0.2% FBS and counted using a Beckman Coulter Z2. A volume of 400 μl of this mix containing 5×10^5 cells was placed on to Boyden Chambers (8 μm pore) inserts with or without LY5 (300 nM) in 24 well plates with 500 μl of M200. VEGF (R and D Systems) in 1% BSA was added to a final concentration of 10 ng/ml in the lower chambers as a chemo-attractant. Cells were pretreated with antibody for 30 min in suspension, then placed in the chambers and incubated at 37° C. 5% C02 for 18-24 hrs. The Boyden chamber porous membranes were then blotted and fixed with 3.7% formaldehyde containing 0.05% crystal violet for 30 min. After repeated washes with distilled water the membranes were air-dried. […] The remainder of the cells on top of the membrane and within the Boyden chamber, were separately incubated in 80% methanol, shaken at 500 rpm for 30 min, and the extracted dye measured at 570 nm. Migration was quantified using the ratio of the migrated cells over the total cells (migrated plus remaining cells) to determine the fraction of migrating cells in each individual experiment. […]

acetyl-STAT3 = assay: Western blot, acetyl-STAT3; format: cell-based, human; conditions: 2 h
[3] = test system: P-STAT3 induced by AZD6244; assay: Western blot, P-STAT3 induced by MEK inhibitor AZD6244; format: cell-based, human; conditions: 2 h
[4] = test system: MDA-MB-231 human breast cancer cells xenograft; assay: Mouse model of xenograft tumor development; format: in vivo; conditions: for tumor growth (tumor volume) / STAT3 phosphorylation in tumor tissue: 21 days; for tumor growth (tumor volume): p<0.001; for STAT3 phosphorylation in tumor tissue: Western blot
Procedure: MDA-MB-231 human breast cancer cells (5×10^6) were injected subcutaneously into the flank area of 6-week-old female athymic nude mice which were purchased from Harlan (Indianapolis, Ind., USA). There were two injection sites per animal, thus each animal provided two tumors for analysis. After tumor development, mice were divided into two treatment groups consisting of eight tumors per group (4 animals/group). The vehicle was as follows: 10% DMSO, 18% Cremophor EL, and 72% sterile 5% Dextrose solution. The same vehicle was used for oral administration (via oral gavage) or intraperitoneal (“IP”) injection. The test compound was LY-5 was at 2.5 mg/ml in the vehicle, and 100 μL was administered daily to each animal (total dose: 5 mg/kg). For both oral and IP administration, LY-5 was administered for 21 days. Tumor growth was determined by measuring length (L) and width (W) of the tumor every other day with a caliper. The tumor volume was calculated according to the formula: Tumor volume=0.5236×L×W^2.
Statistical analysis for mouse xenograft tumor data was performed by fitting a mixed model to conduct the repeated measures analysis. The repeated measures in the model were the log transformed growing rates (log 10(tumor size/day one tumor size)) measured in different days (1,3, etc. as indicated). The purpose of the model was to test whether the interaction effect between measurement time and treatment group was significant. The interaction item can be interpreted as “the difference of growing rate among the groups.” Probability (p) values less than 0.05 were considered statistically significant.

[5] = Toxicity assessment in tumor-free mice; format: in vivo, mouse; conditions: C57BL/6 mice, IP 5 or 10 mg/kg daily, 7 days
Procedure: In order to provide preliminary data regarding potential toxicities from dosing of LY5, C57BL/6 tumor-free mice were treated with daily intraperitoneal (IP) injections of LY5 at 5 or 10 mg/kg for 7 days. […] Additionally, LY5 at a dose of 5 mg/kg via IP for 5 days inhibited growth of OS-1 tumor xenografts (90% tumor volume compared to baseline), while tumor in vehicle treated mice continued to grow (143% tumor volume compared to baseline).

## NS(=O)(=O)c1cccc2c1C(=O)C=C(Nc1cccnc1)C2=O [LY-5, 5,8-dioxo-6-(pyridin-3-ylamino)-5,8-dihydronaphthalene-1-sulfonamide]
Cleaved caspase-3; EW8, 0.5-1.0 μM, 8 h
  apoptosis (cleaved caspase 3): induction of apoptosis
Cleaved caspase-3; HCSMC, HH and HSMM, 0-1 μM, 2 h
  apoptosis (cleaved caspase-3) in normal cells: but not in HCSMC, HH and HSMM cells
Cleaved caspase-3; RD2 and EW8, 0-1 μM, 2 h
  apoptosis (cleaved caspase-3): induces apoptosis
Cleaved caspase-3; UW288-1 and UW426, 0-1 μM, 2 h
  apoptosis (cleaved caspase-3): apoptosis
[1]; DAOY, 0-5 μM, 2 h
  IGF-1 induced STAT3 phosphorylation at Y705: inhibits
  LIF induced STAT3 phosphorylation at Y705: inhibits
[1]; SJSA, 0-2.5 μM, 4 h
  IGF2 induced STAT3 phosphorylation: inhibits
[2]; 5 mg/kg daily, day 7
  number of CD34 positive vessels in Matrigel plugs: decrease in number of vessels
[2]; 5 mg/kg dose level, VEGF plugs
  decrease of vessel formation in Matrigel plugs: 85%
HUVEC
  VEGF induced HUVEC cell migration (wound width): decreased cell migration
  percentage of migration (migrated cells over total cells): decreased percentage of migration
HUVEC; listed as LY5
  VEGF induced HUVEC cell migration (wound width): significantly blocked
acetyl-STAT3; RD2, 0-2.5 μM
  acetyl-STAT3: decrease in STAT3 phosphorylation and acetyl-STAT3
acetyl-STAT3; UW288-1 and UW426, 0-5 μM
  acetyl-STAT3: inhibits
[3]; HCT-116, LY5+AZD6244 5 μM+10 μM
  P-STAT3 induced by AZD6244: decrease in STAT3 phosphorylation
[3]; MIA-PaCa-2, LY5+AZD 1 μM+10 μM
  P-STAT3 induced by AZD6244: decrease in STAT3 phosphorylation
[4]; human breast cancer tumor xenograft
  vessel number in tumor tissue (anti-CD34 staining): reduced the vessel number
[4]; intraperitoneal injection, 5 mg/kg daily, 5 mg/kg
  tumor growth (tumor volume): significantly suppresses; also recorded: decrease in tumor growth
[4]; oral gavage, 5 mg/kg daily, 5 mg/kg
  tumor growth (tumor volume): strongly suppressed tumor growth
[4]; oral gavage, 5 mg/kg daily, listed as LY5, 5 mg/kg
  tumor growth (tumor volume): significantly decreased; also recorded: decreased tumor growth
[4]; oral, 5 mg/kg daily
  body weight and visible signs of toxicity: No obvious change in body weight or visible signs of toxicity
[4]; oral, 5 mg/kg
  STAT3 phosphorylation in tumor tissue: no apparent phosphorylated STAT3
[4]; oral, 5 mg/kg, listed as LY5, 5 mg/kg
  STAT3 phosphorylation in tumor tissue: noticeably lower than vehicle group; also recorded: decrease in STAT3 phosphorylation
[5]
  erythrocyte, leukocyte and platelet parameters: no differences
  organ weights as a percentage of body weight: did not vary significantly
[5]; n=2
  histologic evaluation of organs: no abnormalities
